According to patent US8563564B2, “Composition for skin external application containing gallocatechin gallate for moisturizing effect on the skin” (priority 2005, dated 2013):

Key:
PPAR-α [1] = experiment: PPAR-α activation capability, One-Factor-At-A-Time reporter gene (Dual-Luciferase) assay in CV-1 cells; assay type: cell-based; details: ratio based on the negative control, mean of three tests
Text: (§1) One of the known methods for determining PPAR activation by observing PPAR activation/inactivation is reporter gene assay (Kliewer et. al., Nature, 1992, 358: 771-774). The reporter gene assay includes cloning a base sequence containing a promoter of interest and reporter genes, and injecting the base sequence into eukaryotic cells to activate transcription and to control the expression of a protein. Herein, protein expression increases as the promoter is activated. The reporter gene used for the first time is CAT (chloramphenicol acetyltransferase) gene. Recently, luciferase gene has been used widely. In the present invention, a Dual-Luciferase Reporter Assay System Kit available from Promega Co. was used. The following test was carried out to determine PPAR-α activation capability. CV-1 cells (ATCC CCL 70), i.e. monkey kidney epithelial cell line, were subcultured in a DMEM medium containing 10% bovine fetal serum treated with charcoal/dextrin. A phenol red-free medium was used to avoid the effect of estrogen upon phenol red. As plasmids, used were plasmids having PPRE (PPARs responsive element) as a promoter, followed by firefly luciferase genes as a reporter, the PPRE being activated by PPAR- (gene-containing PPAR- and ligand-bound PPAR-) bound next to the universal promoter expressed under general culture conditions, and a reference plasmid to which renilla luciferase genes were bound. CV-1 cells were plated on a 24-well microtiter plate at a concentration of 5×10^4 cells per well and cultured for 24 hours. Then, the above three types of plasmid genes were subjected to transient transfection by using a TransFast Kit available from Promega Co. After the cultured product was washed with PBS (phosphate buffered saline) once, the product was treated with a suitable concentration of sample materials, cultured again for 24 hours, and washed with PBS twice. Next, the cells were lysed with PLB (passive lysis buffer, Promega) once, and determined for luciferase activity by using a Dual-Luciferase Reporter Assay System Kit (Promega) in the samples and the controls. In this test, as a positive control, Wy14643 known as the strongest PPAR-α ligand was used. As negative controls, DMSO used to dissolve the samples and non-treated group were used. Each reported value was calculated as a ratio based on the negative control. The results are shown in the following Table 1, wherein each value is the mean value obtained after carrying out the test three times.

PPAR-α [2] = experiment: PPAR-α activation capability of GCG/theobromine/quercetin combinations, response surface methodology (central composite design); assay type: cell-based
Text: as §1, with “CV-1” for “One of the known methods for determining PPAR activation by observing PPAR activation/inactivation is reporter gene assay (Kliewer et. al., Nature, 1992, 358: 771-774). The reporter gene assay includes cloning a base sequence containing a promoter of interest and reporter genes, and injecting the base sequence into eukaryotic cells to activate transcription and to control the expression of a protein. Herein, protein expression increases as the promoter is activated. The reporter gene used for the first time is CAT (chloramphenicol acetyltransferase) gene. Recently, luciferase gene has been used widely. In the present invention, a Dual-Luciferase Reporter Assay System Kit available from Promega Co. was used. The following test was carried out to determine PPAR-α activation capability. CV-1”, “times. […] When using RSM, it is possible to understand the level of an independent parameter where a response value is optimized, to estimate the effect of an independent parameter upon response parameters via estimation of a functional relationship between each independent parameter and dependent parameter, and to determine optimized experimental conditions. […]” for “times.”

| Molecule | PPAR-α Activation (PPAR-α [1]; 10 uM) | PPAR-α Activation (PPAR-α [1]; 100 uM) | other results |
| --- | --- | --- | --- |
| Cc1cccc(Nc2cc(Cl)nc(SCC(=O)O)n2)c1C [Positive Control, Wy14643] | 3.8 | – | PPAR-α Activation (PPAR-α [1]; 0.1 uM): 1.5; PPAR-α Activation (PPAR-α [1]; 1 uM): 2.6 |
| Oc1cc(O)c2c(c1)O[C@H](c1ccc(O)c(O)c1)[C@H](O)C2 [(−) EC] | 1.2 | 1.2 | – |
| Oc1cc(O)c2c(c1)O[C@H](c1cc(O)c(O)c(O)c1)[C@H](O)C2 [(−) EGC] | 1.3 | 1.0 | – |
| O=c1c(O)c(-c2cc(O)c(O)c(O)c2)oc2cc(O)cc(O)c12 [Myricetin] | 1.7 | 1.6 | – |
| O=C(O)[C@]1(O)C[C@@H](O)[C@@H](O)[C@H](O)C1 [Quinic acid] | 1.3 | 1.7 | – |
| Cn1c(=O)c2c(ncn2C)n(C)c1=O [Caffeine] | 1.3 | 1.6 | – |
| O=C(O[C@@H]1Cc2c(O)cc(O)cc2O[C@@H]1c1ccc(O)c(O)c1)c1cc(O)c(O)c(O)c1 [(−) ECG] | 1.1 | 1.6 | – |
| Cn1c(=O)c2[nH]cnc2n(C)c1=O [Theophylline] | 1.4 | 1.7 | – |
| O=C(O[C@@H]1Cc2c(O)cc(O)cc2O[C@H]1c1cc(O)c(O)c(O)c1)c1cc(O)c(O)c(O)c1 [(−) GCG, gallocatechin gallate] | 1.1 | 2.3 | fold (PPAR-α activation) (PPAR-α [2]; GCG 100, theobromine 0, quercetin 0): 1.191 fold |
| O=c1c(O)c(-c2ccc(O)c(O)c2)oc2cc(O)cc(O)c12 [Quercetin] | 1.7 | 2.3 | fold (PPAR-α activation) (PPAR-α [2]; GCG 0, theobromine 0, quercetin 100): 1.3 fold |
| O=c1c(O)c(-c2ccc(O)cc2)oc2cc(O)cc(O)c12 [Kaempferol] | 1.7 | 1.4 | – |
| Oc1cc(O)c2c(c1)O[C@H](c1ccc(O)c(O)c1)[C@@H](O)C2 [(+) CA] | 1.5 | 1.4 | – |
| Oc1cc(O)c2c(c1)O[C@@H](c1cc(O)c(O)c(O)c1)[C@H](O)C2 [(−) GC] | 1.1 | 1.0 | – |
| CCNC(=O)CC[C@H](N)C(=O)O [Theanine] | 1.8 | 1.9 | – |
| O=C(O[C@@H]1Cc2c(O)cc(O)cc2O[C@H]1c1ccc(O)c(O)c1)c1cc(O)c(O)c(O)c1 [(−) CG] | 1.2 | 1.6 | – |
| Epigallocatechin gallate [(−) EGCG] | 1.0 | 1.5 | – |
| C[C@@H]1O[C@@H](OC[C@H]2O[C@@H](Oc3c(-c4ccc(O)c(O)c4)oc4cc(O)cc(O)c4c3=O)[C@H](O)[C@@H](O)[C@@H]2O)[C@H](O)[C@H](O)[C@H]1O [Rutin hydrate] | 1.6 | 1.3 | – |
| Oc1cc(O)c2c(c1)O[C@@H](c1ccc(O)c(O)c1)[C@@H](O)C2 [(+) EC] | 1.3 | 1.2 | – |
| O=C(O)c1cc(O)c(O)c(O)c1 [Gallic acid] | 1.3 | 1.7 | – |
| Cn1cnc2c1c(=O)[nH]c(=O)n2C [Theobromine] | 2.2 | 4.5 | fold (PPAR-α activation) (PPAR-α [2]; GCG 0, theobromine 100, quercetin 0): 1.905 fold |
